{"source": "ChEMBL document CHEMBL4020780", "about": "“Evaluation of synthesized coumarin derivatives on aromatase inhibitory activity” (Bioorg Med Chem Lett, 2017)", "key": {"Aromatase": {"molecular_target": "T1, Aromatase (Homo sapiens, UniProt P11511)", "T1 sequence (P11511 whole entry)": "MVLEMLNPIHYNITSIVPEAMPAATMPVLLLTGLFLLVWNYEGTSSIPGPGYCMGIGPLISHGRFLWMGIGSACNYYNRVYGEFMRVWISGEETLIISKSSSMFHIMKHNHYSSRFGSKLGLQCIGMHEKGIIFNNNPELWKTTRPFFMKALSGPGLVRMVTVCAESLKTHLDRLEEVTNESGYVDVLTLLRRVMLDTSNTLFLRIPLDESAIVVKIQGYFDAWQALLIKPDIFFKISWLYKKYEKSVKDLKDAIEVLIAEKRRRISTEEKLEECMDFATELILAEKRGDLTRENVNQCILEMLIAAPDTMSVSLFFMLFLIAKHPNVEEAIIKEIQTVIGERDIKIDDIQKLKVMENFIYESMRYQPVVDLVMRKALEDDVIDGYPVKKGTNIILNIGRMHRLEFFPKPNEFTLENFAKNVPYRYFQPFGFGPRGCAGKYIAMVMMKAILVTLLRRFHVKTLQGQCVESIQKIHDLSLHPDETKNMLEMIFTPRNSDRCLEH"}, "CYP19 (aromatase) [1]": {"molecular_target": "T2, CYP19 (aromatase) (Homo sapiens, UniProt P11511)", "T2 sequence (P11511 whole entry)": "T1 sequence (P11511 whole entry)", "test": "Inhibition of human CYP19 assessed as residual activity at 10 uM using [1beta-3H]-androstenedione as substrate after 15 mins in presence of NADPH by liquid scintillation counter method relative to control", "settings": "probe [1beta-3H]-androstenedione, read-out: Activity"}, "CYP19 (aromatase) [2]": {"molecular_target": "T2, CYP19 (aromatase)", "test": "Inhibition of human CYP19 assessed as residual activity at 0.1 uM using [1beta-3H]-androstenedione as substrate after 15 mins in presence of NADPH by liquid scintillation counter method relative to control", "settings": "probe [1beta-3H]-androstenedione, read-out: Activity"}}, "note": "pIC50: −log10 of the molar value.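 Wherever pIC50 is given: tritiated androstenedione turnover by human CYP19 with NADPH over 15 min, measured through liquid scintillation counting, value is the concentration halving enzyme activity.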", "data": [{"smiles": "COc1ccc(-c2ccc3ccc(=O)oc3c2)cc1", "values": [{"measurement": "pIC50", "setting": "Aromatase", "value": "< 5.00"}]}, {"smiles": "CCN(CC)c1ccc2cc(-c3cnco3)c(=O)oc2c1", "values": [{"measurement": "pIC50", "setting": "Aromatase", "value": 5.51}, {"measurement": "activity at 0.25 h, 10 µM", "setting": "CYP19 (aromatase) [1]", "value": "22 to 104", "unit": "%"}]}, {"smiles": "COc1ccc2ccc(=O)oc2c1", "note": "[HERNIARIN]", "values": [{"measurement": "pIC50", "setting": "Aromatase", "value": "< 5.00"}, {"measurement": "activity at 0.25 h, 10 µM", "setting": "CYP19 (aromatase) [1]", "value": 96, "unit": "%"}]}, {"smiles": "CCOC(=O)c1oc(-c2cc3ccc(N(CC)CC)cc3oc2=O)nc1C", "values": [{"measurement": "pIC50", "setting": "Aromatase", "value": "< 5.00"}, {"measurement": "activity at 0.25 h, 10 µM", "setting": "CYP19 (aromatase) [1]", "value": "22 to 104", "unit": "%"}]}, {"smiles": "CCN(CC)c1ccc2cc(-c3nc(-c4ccccc4)cs3)c(=O)oc2c1", "values": [{"measurement": "pIC50", "setting": "Aromatase", "value": "< 5.00"}, {"measurement": "activity at 0.25 h, 10 µM", "setting": "CYP19 (aromatase) [1]", "value": 65, "unit": "%"}]}, {"smiles": "CCN(CC)c1ccc2cc(-c3nc(C)cs3)c(=O)oc2c1", "values": [{"measurement": "pIC50", "setting": "Aromatase", "value": 5.96}, {"measurement": "activity at 0.25 h, 10 µM", "setting": "CYP19 (aromatase) [1]", "value": 15, "unit": "%"}]}, {"smiles": "O=c1ccc2ccc(-c3cccnc3)cc2o1", "values": [{"measurement": "pIC50", "setting": "Aromatase", "value": 7.52}, {"measurement": "activity at 0.25 h, 0.1 µM", "setting": "CYP19 (aromatase) [2]", "value": 25, "unit": "%"}, {"measurement": "activity at 0.25 h, 10 µM", "setting": "CYP19 (aromatase) [1]", "value": 0, "unit": "%"}]}, {"smiles": "CCOC(=O)c1csc(-c2cc3ccc(N(CC)CC)cc3oc2=O)n1", "values": [{"measurement": "pIC50", "setting": "Aromatase", "value": 5.96}, {"measurement": "activity at 0.25 h, 10 µM", "setting": "CYP19 (aromatase) [1]", "value": 22, "unit": "%"}]}, {"smiles": "CCN(CC)c1ccc2cc(-c3nc(CC(=O)OC)cs3)c(=O)oc2c1", "values": [{"measurement": "pIC50", "setting": "Aromatase", "value": "< 5.00"}, {"measurement": "activity at 0.25 h, 10 µM", "setting": "CYP19 (aromatase) [1]", "value": 55, "unit": "%"}]}, {"smiles": "CCN(CC)c1ccc2cc(-c3coc(-c4ccccc4)n3)c(=O)oc2c1", "values": [{"measurement": "pIC50", "setting": "Aromatase", "value": "< 5.00"}, {"measurement": "activity at 0.25 h, 10 µM", "setting": "CYP19 (aromatase) [1]", "value": "22 to 104", "unit": "%"}]}, {"smiles": "O=c1ccc2ccc(-c3ccncc3)cc2o1", "values": [{"measurement": "pIC50", "setting": "Aromatase", "value": 5.59}, {"measurement": "activity at 0.25 h, 0.1 µM", "setting": "CYP19 (aromatase) [2]", "value": 92, "unit": "%"}, {"measurement": "activity at 0.25 h, 10 µM", "setting": "CYP19 (aromatase) [1]", "value": 14, "unit": "%"}]}, {"smiles": "O=c1ccc2ccc(-c3ccccc3)cc2o1", "values": [{"measurement": "pIC50", "setting": "Aromatase", "value": "< 5.00"}]}, {"smiles": "O=c1ccc2ccc(-c3ccccn3)cc2o1", "values": [{"measurement": "pIC50", "setting": "Aromatase", "value": "< 5.00"}, {"measurement": "activity at 0.25 h, 10 µM", "setting": "CYP19 (aromatase) [1]", "value": 96, "unit": "%"}]}, {"smiles": "CCN(CC)c1ccc2ccc(=O)oc2c1", "values": [{"measurement": "pIC50", "setting": "Aromatase", "value": "< 5.00"}, {"measurement": "activity at 0.25 h, 10 µM", "setting": "CYP19 (aromatase) [1]", "value": 86, "unit": "%"}]}, {"smiles": "CCN(CC)c1ccc2cc(-c3cc4ccc(N(CC)CC)cc4oc3=O)c(=O)oc2c1", "values": [{"measurement": "pIC50", "setting": "Aromatase", "value": 7.54}, {"measurement": "activity at 0.25 h, 0.1 µM", "setting": "CYP19 (aromatase) [2]", "value": 30, "unit": "%"}, {"measurement": "activity at 0.25 h, 10 µM", "setting": "CYP19 (aromatase) [1]", "value": 0, "unit": "%"}]}, {"smiles": "COc1ccc2cc(-c3cc4ccc(OC)cc4oc3=O)c(=O)oc2c1", "values": [{"measurement": "pIC50", "setting": "Aromatase", "value": "< 5.00"}, {"measurement": "activity at 0.25 h, 10 µM", "setting": "CYP19 (aromatase) [1]", "value": 77, "unit": "%"}]}, {"smiles": "CCN(CC)c1ccc2cc(-c3ncco3)c(=O)oc2c1", "values": [{"measurement": "pIC50", "setting": "Aromatase", "value": "< 5.00"}, {"measurement": "activity at 0.25 h, 10 µM", "setting": "CYP19 (aromatase) [1]", "value": "22 to 104", "unit": "%"}]}]}
